Source: ChEMBL document CHEMBL2390846, “Small-molecule pyrimidine inhibitors of the cdc2-like (Clk) and dual specificity tyrosine phosphorylation-regulated (Dyrk) kinases: development of chemical probe ML315” (Bioorg Med Chem Lett, 2013)
≈ marks a conversion by molar mass, not a printed value.

Legend:
[1] = target: T1, Dual specificity tyrosine-phosphorylation-regulated kinase 1A (Homo sapiens, UniProt Q13627); test: Inhibition of DYRK1A (unknown origin) by bioluminescence assay; conditions: read-out: IC50
[2] = target: Dual specificity tyrosine-phosphorylation-regulated kinase 1B (Homo sapiens, UniProt Q9Y463)
Dual specificity tyrosine-phosphorylation-regulated kinase 1B, sequence (Q9Y463 whole entry): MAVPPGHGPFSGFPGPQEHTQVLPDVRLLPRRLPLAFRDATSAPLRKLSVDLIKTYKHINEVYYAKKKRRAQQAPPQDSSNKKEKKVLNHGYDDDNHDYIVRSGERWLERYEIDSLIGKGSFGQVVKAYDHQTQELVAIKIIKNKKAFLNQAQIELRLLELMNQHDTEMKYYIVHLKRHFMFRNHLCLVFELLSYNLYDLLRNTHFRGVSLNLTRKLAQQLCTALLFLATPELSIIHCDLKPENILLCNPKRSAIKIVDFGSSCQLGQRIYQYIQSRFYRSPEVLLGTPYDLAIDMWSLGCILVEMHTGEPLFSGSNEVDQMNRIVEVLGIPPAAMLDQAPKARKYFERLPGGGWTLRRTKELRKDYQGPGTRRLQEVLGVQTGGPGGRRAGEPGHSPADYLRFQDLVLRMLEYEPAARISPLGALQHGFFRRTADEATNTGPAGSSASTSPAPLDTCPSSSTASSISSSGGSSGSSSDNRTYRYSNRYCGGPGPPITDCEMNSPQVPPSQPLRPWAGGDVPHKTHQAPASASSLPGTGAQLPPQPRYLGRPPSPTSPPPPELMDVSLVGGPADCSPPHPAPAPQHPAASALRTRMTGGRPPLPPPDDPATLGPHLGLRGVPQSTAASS

[3] = target: T2, Dual specificity protein kinase CLK4 (Homo sapiens, UniProt Q9HAZ1); test: Inhibition of CLK4 (unknown origin) by bioluminescence assay; conditions: read-out: IC50
T2 sequence (Q9HAZ1 whole entry): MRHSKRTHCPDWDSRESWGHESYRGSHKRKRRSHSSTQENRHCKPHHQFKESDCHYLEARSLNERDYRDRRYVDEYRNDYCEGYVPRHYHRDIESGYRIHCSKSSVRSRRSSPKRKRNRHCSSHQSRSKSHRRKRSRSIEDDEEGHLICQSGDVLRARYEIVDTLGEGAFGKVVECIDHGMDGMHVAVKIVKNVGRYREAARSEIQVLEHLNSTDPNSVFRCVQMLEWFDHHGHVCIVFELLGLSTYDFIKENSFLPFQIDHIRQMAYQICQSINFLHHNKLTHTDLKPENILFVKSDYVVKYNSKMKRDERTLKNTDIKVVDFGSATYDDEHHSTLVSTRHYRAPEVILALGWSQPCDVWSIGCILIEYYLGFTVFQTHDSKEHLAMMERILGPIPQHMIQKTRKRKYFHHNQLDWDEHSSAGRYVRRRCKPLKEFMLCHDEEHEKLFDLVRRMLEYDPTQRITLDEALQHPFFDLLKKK

[4] = target: T2, Dual specificity protein kinase CLK4
[5] = target: Dual specificity protein kinase CLK3 (Homo sapiens, UniProt P49761)
Dual specificity protein kinase CLK3, sequence (P49761 whole entry): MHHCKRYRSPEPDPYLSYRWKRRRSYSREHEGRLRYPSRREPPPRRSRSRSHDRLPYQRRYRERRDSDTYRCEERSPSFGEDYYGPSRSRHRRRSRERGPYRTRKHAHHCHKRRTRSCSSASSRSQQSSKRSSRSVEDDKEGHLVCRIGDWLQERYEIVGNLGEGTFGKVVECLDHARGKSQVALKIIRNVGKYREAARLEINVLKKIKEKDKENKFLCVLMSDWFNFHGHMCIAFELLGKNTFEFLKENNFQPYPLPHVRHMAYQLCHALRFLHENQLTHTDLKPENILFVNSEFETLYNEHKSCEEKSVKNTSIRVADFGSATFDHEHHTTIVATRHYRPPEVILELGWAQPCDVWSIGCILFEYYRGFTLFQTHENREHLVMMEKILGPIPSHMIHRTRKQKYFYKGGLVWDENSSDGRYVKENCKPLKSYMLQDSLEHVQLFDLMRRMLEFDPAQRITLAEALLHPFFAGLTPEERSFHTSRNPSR

[6] = target: Dual specificity protein kinase CLK2 (Homo sapiens, UniProt P49760)
Dual specificity protein kinase CLK2, sequence (P49760 whole entry): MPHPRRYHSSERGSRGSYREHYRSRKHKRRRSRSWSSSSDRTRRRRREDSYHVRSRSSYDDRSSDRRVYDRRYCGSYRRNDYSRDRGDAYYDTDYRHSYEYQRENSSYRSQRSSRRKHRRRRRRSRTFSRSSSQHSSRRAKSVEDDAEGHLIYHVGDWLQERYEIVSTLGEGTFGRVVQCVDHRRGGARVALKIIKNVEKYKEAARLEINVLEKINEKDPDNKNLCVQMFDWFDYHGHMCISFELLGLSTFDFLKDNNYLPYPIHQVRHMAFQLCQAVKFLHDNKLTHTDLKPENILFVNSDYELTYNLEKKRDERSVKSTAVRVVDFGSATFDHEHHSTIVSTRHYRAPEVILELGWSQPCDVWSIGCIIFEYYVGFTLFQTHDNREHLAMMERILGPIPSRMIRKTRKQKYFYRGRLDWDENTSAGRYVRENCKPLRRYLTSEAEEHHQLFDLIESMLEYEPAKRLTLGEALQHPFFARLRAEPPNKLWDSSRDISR

[7] = target: T1, Dual specificity tyrosine-phosphorylation-regulated kinase 1A
[8] = target: Dual specificity protein kinase CLK1 (Homo sapiens, UniProt P49759)
Dual specificity protein kinase CLK1, sequence (P49759 whole entry): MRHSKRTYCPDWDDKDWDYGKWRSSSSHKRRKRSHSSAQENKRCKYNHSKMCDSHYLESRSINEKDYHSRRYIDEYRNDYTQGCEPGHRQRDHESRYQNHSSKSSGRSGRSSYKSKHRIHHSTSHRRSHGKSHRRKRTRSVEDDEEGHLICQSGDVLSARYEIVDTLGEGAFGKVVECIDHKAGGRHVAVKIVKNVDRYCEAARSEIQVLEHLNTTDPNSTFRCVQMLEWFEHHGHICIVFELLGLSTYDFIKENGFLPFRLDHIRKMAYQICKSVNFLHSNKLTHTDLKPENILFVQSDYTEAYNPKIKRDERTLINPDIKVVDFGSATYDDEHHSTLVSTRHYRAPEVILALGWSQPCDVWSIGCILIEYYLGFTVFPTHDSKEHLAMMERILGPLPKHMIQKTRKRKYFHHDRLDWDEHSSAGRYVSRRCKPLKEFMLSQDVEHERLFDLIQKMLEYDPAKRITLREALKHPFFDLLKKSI

[9] = Permeability of the compound in aqueous buffer at donor compartment pH 6.2 and acceptor compartment pH 7.4 by PAMPA; type: ADME
[10] = Plasma protein binding in human at 1 uM; type: ADME, cell-free; conditions: read-out: PPB (converted)
[11] = Metabolic stability in human liver microsomes assessed as compound remaining at 1 hr; type: ADME, Microsome; conditions: read-out: Stability
[12] = Plasma protein binding in mouse at 1 uM; type: ADME, cell-free; conditions: read-out: PPB (converted)
[13] = Plasma protein binding in human at 10 uM; type: ADME, cell-free; conditions: read-out: PPB (converted)
[14] = Metabolic stability in mouse liver microsomes assessed as compound remaining at 1 hr; type: ADME, Microsome; conditions: read-out: Stability
[15] = target: hERG (KCNH2) (Homo sapiens, UniProt Q12809); test: Inhibition of human ERG at 10 uM relative to control
hERG (KCNH2), sequence (Q12809 whole entry): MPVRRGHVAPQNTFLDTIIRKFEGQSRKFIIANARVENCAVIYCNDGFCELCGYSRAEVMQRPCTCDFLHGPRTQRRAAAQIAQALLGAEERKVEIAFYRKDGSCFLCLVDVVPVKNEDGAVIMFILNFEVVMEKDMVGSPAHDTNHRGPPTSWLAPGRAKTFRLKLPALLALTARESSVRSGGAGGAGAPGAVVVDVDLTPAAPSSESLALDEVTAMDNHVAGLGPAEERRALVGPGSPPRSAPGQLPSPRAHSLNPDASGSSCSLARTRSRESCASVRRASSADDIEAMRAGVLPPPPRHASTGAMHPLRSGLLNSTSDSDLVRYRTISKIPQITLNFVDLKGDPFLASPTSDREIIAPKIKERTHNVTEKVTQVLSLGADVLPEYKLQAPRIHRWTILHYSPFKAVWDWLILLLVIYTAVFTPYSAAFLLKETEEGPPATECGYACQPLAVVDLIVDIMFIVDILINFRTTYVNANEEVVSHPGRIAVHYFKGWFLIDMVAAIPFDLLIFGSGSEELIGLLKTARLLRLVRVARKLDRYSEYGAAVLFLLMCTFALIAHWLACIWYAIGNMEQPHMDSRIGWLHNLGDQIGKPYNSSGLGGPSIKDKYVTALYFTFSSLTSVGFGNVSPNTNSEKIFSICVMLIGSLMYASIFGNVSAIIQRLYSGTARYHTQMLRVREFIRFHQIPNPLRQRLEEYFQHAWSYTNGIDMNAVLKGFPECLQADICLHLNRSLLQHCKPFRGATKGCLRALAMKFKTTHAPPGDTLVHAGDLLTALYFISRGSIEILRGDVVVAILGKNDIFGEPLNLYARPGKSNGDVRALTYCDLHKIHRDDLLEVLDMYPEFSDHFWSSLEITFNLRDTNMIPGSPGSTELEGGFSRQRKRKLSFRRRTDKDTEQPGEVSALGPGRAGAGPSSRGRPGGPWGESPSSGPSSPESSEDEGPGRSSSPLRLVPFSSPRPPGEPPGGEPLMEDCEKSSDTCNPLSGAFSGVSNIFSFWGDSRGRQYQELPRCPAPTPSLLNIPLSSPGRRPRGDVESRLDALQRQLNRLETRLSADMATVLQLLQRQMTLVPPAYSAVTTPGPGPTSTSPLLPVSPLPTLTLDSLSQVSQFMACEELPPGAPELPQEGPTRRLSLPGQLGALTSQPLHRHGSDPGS

[16] = Plasma protein binding in mouse at 10 uM; type: ADME, cell-free; conditions: read-out: PPB (converted)
[17] = Hepatotoxicity against human Fa2N-4 cells; type: toxicity, cell-based; conditions: read-out: LC50 (the source's name)
[18] = Permeability of the compound in aqueous buffer at donor compartment pH 7.4 and acceptor compartment pH 7.4 by PAMPA; type: ADME
[19] = Aqueous solubility of the compound in PBS at pH 7.4; type: physicochemical
[20] = Metabolic stability in mouse plasma assessed as compound remaining at 3 hrs; type: ADME, cell-free; conditions: read-out: Stability
[21] = Permeability of the compound in aqueous buffer at donor compartment pH 5.0 and acceptor compartment pH 7.4 by PAMPA; type: ADME
[22] = Solubility of the compound in assay media at pH 7.5; type: physicochemical
[23] = target: L-type calcium channel, benzothiazepine binding site (Rattus norvegicus, UniProt P22002+P27732+Q02485); test: Inhibition of rat L-type calcium channel benzothiazepine binding site at 10 uM relative to control
[24] = Metabolic stability in human plasma assessed as compound remaining at 3 hrs; type: ADME, cell-free; conditions: read-out: Stability

Row | IC50 [1] [nM] | IC50 [2] [nM] | IC50 [3] [nM] | IC50 [4] [nM] | IC50 [5] [nM] | IC50 [6] [nM] | IC50 [7] [nM] | IC50 [8] [nM] | Structure (SMILES) | other results
1 |  | 7 |  |  | > 10000 | 23 |  | 2 | Clc1cc(Cl)cc(CNc2nccc(-c3ccc4c(c3)OCO4)n2)c1 | 
2 | 520 | 137 | 130 | 86 |  | 345 | 107 | 102 | FC(F)(F)c1cc(Br)cc(Nc2nccc(-c3ccc4c(c3)OCO4)n2)c1 | 
3 | 130 | 42 | 120 | 75 |  | 259 | 25 | 180 | c1cc(-c2ccc3c(c2)OCO3)nc(Nc2ccc3c(c2)OCO3)n1 | 
4 | 70 | 18 | 70 | 42 | > 10000 | 52 | 10 | 34 | FC(F)(F)c1cccc(Nc2nccc(-c3ccc4c(c3)OCO4)n2)c1 | 
5 | 160 | 38 | 40 | 14 | 3630 | 20 | 26 | 8 | Clc1ccc(CNc2nccc(-c3ccc4c(c3)OCO4)n2)cc1Cl | 
6 | 820 | 112 | 80 | 18 | 3230 | 30 | 79 | 24 | Brc1ccc(CNc2nccc(-c3ccc4c(c3)OCO4)n2)cc1Br | 
7 | 40 | 12 | 20 | 16 | 1470 | 60 | 7 | 11 | c1cncc(CNc2nccc(-c3ccc4c(c3)OCO4)n2)c1 | 
8 | 520 | 884 | 370 | 5450 |  | > 10000 | 273 | 1260 | Clc1ccc(Nc2nccc(-c3ccc4c(c3)OCO4)n2)cc1 | 

More lines, now with the values behind:

Row | Structure (SMILES) | IC50 [1] [nM] | IC50 [2] [nM] | IC50 [3] [nM] | IC50 [4] [nM] | IC50 [5] [nM] | IC50 [6] [nM] | IC50 [7] [nM] | IC50 [8] [nM] | other results
9 | Clc1ccc(CNc2nccc(-c3ccc4c(c3)OCCO4)n2)cc1Cl | 210 | 55 | 120 | 13 | > 10000 | 39 | 18 | 16 | 
10 | Clc1ccc(CNc2nccc(-c3ccc4cn[nH]c4c3)n2)cc1Cl | 1640 | 599 | 5820 | 123 |  | 429 | 169 | 183 | 
11 | c1cncc(CNc2ccnc(-c3ccc4[nH]ncc4c3)n2)c1 | 650 | 179 | 150 | 574 |  | 665 | 349 | 964 | 
12 | Clc1ccc(CNc2ncncc2-c2ccc3c(c2)OCO3)cc1 | 26000 | 8860 | 5820 | 9280 |  | 8790 | 4580 | 2370 | 
13 | COc1cccc(-c2ccnc(NCc3ccc(Cl)cc3)n2)c1 | 7330 | 6780 | 5820 | 6810 |  | > 10000 | 6360 | > 10000 | 
14 | Clc1ccc(CNc2nccc(-c3ccc4[nH]ncc4c3)n2)cc1Cl | 330 | 125 | 30 | 30 | 2930 | 190 | 129 | 41 | 
15 | Brc1cc(Br)cc(CNc2nccc(-c3ccc4c(c3)OCO4)n2)c1 | 70 | 18 | 40 | 9 |  | 41 | 11 | 13 | 
16 | Clc1cc(Cl)cc(CNc2ncncc2-c2ccc3c(c2)OCO3)c1 | 2600 | 1160 | 130 | 68 | > 10000 | 231 | 282 | 68 | permeability [9]: 1360 ×10⁻⁶ cm/s; fraction unbound at 1 µM [10]: 0.0065; remaining at 1 h [11]: 1.3%; fraction unbound at 1 µM [12]: 0.0051; fraction unbound at 10 µM [13]: 0.0022; remaining at 1 h [14]: 0.54%; inhibition at 10 µM [15]: 44%; fraction unbound at 10 µM [16]: 0.0053; CC50 [17]: > 50000 nM; permeability [18]: 1150 ×10⁻⁶ cm/s; solubility [19]: 1.15 µM (≈ 0.43 µg/mL); remaining at 3 h [20]: 86.7%; permeability [21]: 2220 ×10⁻⁶ cm/s; solubility [22]: 1.71 µM (≈ 0.64 µg/mL); inhibition at 10 µM [23]: 26%; remaining at 3 h [24]: 85.5%
17 | c1cncc(CNc2nccc(-c3ccc4[nH]ncc4c3)n2)c1 | 150 | 93 | 30 | 60 | 2660 | 462 | 61 | 73 | 
18 | COc1cccc(-c2ccnc(NCc3ccc(Cl)c(Cl)c3)n2)c1 | 5820 | > 10000 | 3680 | 3860 |  | > 10000 | 4650 | 5460 | 
19 | Clc1ccc(CNc2ncncc2-c2ccc3c(c2)OCO3)cc1Cl | 4120 | > 10000 | 580 | 526 |  | 1560 | 3450 | 626 | 
